Test results taken from publication PMC4864329, “In vitro and in vivo efficacy, toxicity, bio-distribution and resistance selection of a novel antibacterial drug candidate” (Scientific Reports, 2016).
Positions of bridges follow the written chain, without caps; N, C: chain ends. Non-standard residues stand in square brackets, D forms with d. Residues, ends and D or L forms follow the SMILES beside them. Chains are numbered I, II in the order given. PEG4 = NCCOCCOCCOCCOCCC(=O)O

Assays:
BALB/c mice = experiment: Acute toxicity in mice, single i.v. dose; type: in vivo, mouse
Protocol: As preliminary toxicity evaluation we first compared the acute toxicity of SET-M33L and SET-M33L-PEG with that of colistin. Animals (10 BALB/c mice/group) were injected i.v. with different amounts of SET-M33L, SET-M33L-PEG or colistin, in single dose, in the range 5–40 mg/kg (Fig. 4), and were monitored for 4 days after inoculation of the peptide. […] At 40 mg/Kg SET-M33L and SET-M33L-PEG produced similar toxicity profiles with strong signs of toxicity and 90–100% mortality after 96 hours. Colistin produced strong signs of toxicity already at 10 mg/Kg: 50% mortality immediately after inoculation and 70% mortality after 24 hours. Colistin induced sudden death in 100% of mice at 20 and 40 mg/Kg.
Mice were treated by a single i.v. administration of different amounts (40, 20, 10, 5 mg/Kg) of SET-M33L, SET-M33L-PEG or colistin sulfate (Sigma-Aldrich, C4461). Signs of toxicity were checked four times a day by visual inspection. A toxicity score was assigned for the following signs: wiry coat and poor motility = mild signs; very wiry coat, abundant lachrymation and poor motility even under stimulation = manifest signs. Animals were monitored for 4 days after inoculation of the peptide. Mice were weighed every day from arrival to the last day of the experiment. Moribund animals were killed humanely to avoid unnecessary distress.

P. aeruginosa PAO1 [1] = experiment: Lung infection model in neutropenic BALB/c mice, i.v. treatment, survival; type: in vivo, Pseudomonas aeruginosa; settings: PAO1 1.5 × 10^3 CFU/mouse i.t., 5 mg/Kg i.v. twice, 1 and 16 h post-infection, 10 days, 10 mice/group
Protocol: Neutropenic mice were injected intra-tracheally (i.t.) with a lethal amount of P. aeruginosa PAO1 (1.5 × 10^3 CFU/mouse). They were then treated twice i.v. 1 and 16 hours post-infection with SET-M33L or SET-M33L-PEG 5 mg/Kg and monitored for survival for 10 days. We obtained 40% and 60% survival with SET-M33L and SET-M33L-PEG, respectively (Fig. 2A).
Animal procedures were approved by the Ethics Committees of the Azienda Ospedaliera Universitaria Senese on November 18, 2010, and of the Italian Ministry of Health on September 21, 2012. Eight-week-old (20 g) BALB/c female mice (Charles River) were used in all experiments. The animals were maintained and handled in accordance with the Guidelines for Accommodation and Care of Animals (European Convention for the Protection of Vertebrate Animals Used for Experimental and Other Scientific Purposes) and internal guidelines. For each experiment the animals were housed in groups of five mice per cage upon arrival and maintained with food and water ad libitum for 5 days before the beginning of treatment. All p values were calculated using GraphPad Prism 5.0 software.
We set up two lung infection models, one for i.v. and the other for intra-tracheal (i.t.) treatment. In the i.v. model, animals were made neutropenic as described in the sepsis model. […] Surviving mice were monitored for 10 days. […]

P. aeruginosa PAO1 [2] = experiment: Sepsis model in neutropenic BALB/c mice, survival; type: in vivo, Pseudomonas aeruginosa; settings: PAO1 1.5 × 10^3 CFU/mouse i.p., 5 mg/Kg i.v. twice, 24 and 72 h post-infection, 12 days, 10 mice/group
Protocol: Neutropenic mice were injected i.p. with a lethal amount of P. aeruginosa PAO1 (1.5 × 10^3 CFU/mouse). Then mice were treated twice i.v. with SET-M33L or SET-M33L-PEG (5 mg/Kg), 24 and 72 hours post-infection. Then animals were monitored for survival for 12 days. Survivals of 60% and 80% were obtained with SET-M33L or SET-M33L-PEG, respectively (Fig. 1). Note that this is a model of acute and rapidly progressive infection, since animals start to show signs of disease within 24 hours and controls died after 40–65 hours. Treatment with the peptides begun 24 h after onset of the infection. The relatively long interval between i.p. inoculation of bacteria and the start of i.v. treatment in animals with suppressed immune systems is a valid indication of the potency of the peptides in vivo.
Animal procedures were approved by the Ethics Committees of the Azienda Ospedaliera Universitaria Senese on November 18, 2010, and of the Italian Ministry of Health on September 21, 2012. Eight-week-old (20 g) BALB/c female mice (Charles River) were used in all experiments. […] All p values were calculated using GraphPad Prism 5.0 software.
In the Pseudomonas model of sepsis[35] animals were rendered neutropenic by i.p. administration of cyclophosphamide (Sigma-Aldrich C7397) at 150 mg/kg (300 μl of a 10 mg/ml solution) 4 days and 1 day before infection. […] Surviving mice were monitored for 12 days. […]

For `CC[C@H](C)[C@H](NC(=O)[C@H](CCCCN)NC(=O)[C@@H](N)CCCCN)C(=O)N[C@@H](CCCNC(=N)N)C(=O)N[C@H](C(=O)N[C@@H](CCCNC(=N)N)C(=O)N[C@@H](CC(C)C)C(=O)N[C@@H](CO)C(=O)N[C@@H](C)C(=O)NCCCC[C@H](NC(=O)[C@H](C)NC(=O)[C@H](CO)NC(=O)[C@H](CC(C)C)NC(=O)[C@H](CCCNC(=N)N)NC(=O)[C@@H](NC(=O)[C@H](CCCNC(=N)N)NC(=O)[C@@H](NC(=O)[C@H](CCCCN)NC(=O)[C@@H](N)CCCCN)[C@@H](C)CC)C(C)C)C(=O)NCCCC[C@H](NC(=O)[C@H](CCCCNC(=O)[C@H](C)NC(=O)[C@H](CO)NC(=O)[C@H](CC(C)C)NC(=O)[C@H](CCCNC(=N)N)NC(=O)[C@@H](NC(=O)[C@H](CCCNC(=N)N)NC(=O)[C@@H](NC(=O)[C@H](CCCCN)NC(=O)[C@@H](N)CCCCN)[C@@H](C)CC)C(C)C)NC(=O)[C@H](C)NC(=O)[C@H](CO)NC(=O)[C@H](CC(C)C)NC(=O)[C@H](CCCNC(=N)N)NC(=O)[C@@H](NC(=O)[C@H](CCCNC(=N)N)NC(=O)[C@@H](NC(=O)[C@H](CCCCN)NC(=O)[C@@H](N)CCCCN)[C@@H](C)CC)C(C)C)C(=O)NCCOCCOCCOCCOCCC(N)=O)C(C)C` [SET-M33L-PEG] (I: H-KKIRVRLSAKK[PEG4]-NH2 / II: H-KKIRVRLSAK / III: H-KKIRVRLSA / IV: H-KKIRVRLSA; amide I:10-IV:C, I:11-II:C, II:10-III:C; N-terminus assumed), the mortality (BALB/c mice; single i.v. dose 40 mg/Kg, after 96 hours) was 90–100%, the “lethality and signs of toxicity” value (BALB/c mice; single i.v. dose up to 20 mg/kg, monitored 4 days, 10 BALB/c mice/group) was “not lethal and no signs of toxicity were observed” and the survival (P. aeruginosa PAO1 [1]) was 60%. The survival (P. aeruginosa PAO1 [2]) was 80%.
